The values that follow come from the Kinase Knowledgebase extract (Sharma et al. 2016).

In the assay the target is EGFR (human) (UniProt P00533).
EGFR (human), sequence (P00533 whole entry, looked up): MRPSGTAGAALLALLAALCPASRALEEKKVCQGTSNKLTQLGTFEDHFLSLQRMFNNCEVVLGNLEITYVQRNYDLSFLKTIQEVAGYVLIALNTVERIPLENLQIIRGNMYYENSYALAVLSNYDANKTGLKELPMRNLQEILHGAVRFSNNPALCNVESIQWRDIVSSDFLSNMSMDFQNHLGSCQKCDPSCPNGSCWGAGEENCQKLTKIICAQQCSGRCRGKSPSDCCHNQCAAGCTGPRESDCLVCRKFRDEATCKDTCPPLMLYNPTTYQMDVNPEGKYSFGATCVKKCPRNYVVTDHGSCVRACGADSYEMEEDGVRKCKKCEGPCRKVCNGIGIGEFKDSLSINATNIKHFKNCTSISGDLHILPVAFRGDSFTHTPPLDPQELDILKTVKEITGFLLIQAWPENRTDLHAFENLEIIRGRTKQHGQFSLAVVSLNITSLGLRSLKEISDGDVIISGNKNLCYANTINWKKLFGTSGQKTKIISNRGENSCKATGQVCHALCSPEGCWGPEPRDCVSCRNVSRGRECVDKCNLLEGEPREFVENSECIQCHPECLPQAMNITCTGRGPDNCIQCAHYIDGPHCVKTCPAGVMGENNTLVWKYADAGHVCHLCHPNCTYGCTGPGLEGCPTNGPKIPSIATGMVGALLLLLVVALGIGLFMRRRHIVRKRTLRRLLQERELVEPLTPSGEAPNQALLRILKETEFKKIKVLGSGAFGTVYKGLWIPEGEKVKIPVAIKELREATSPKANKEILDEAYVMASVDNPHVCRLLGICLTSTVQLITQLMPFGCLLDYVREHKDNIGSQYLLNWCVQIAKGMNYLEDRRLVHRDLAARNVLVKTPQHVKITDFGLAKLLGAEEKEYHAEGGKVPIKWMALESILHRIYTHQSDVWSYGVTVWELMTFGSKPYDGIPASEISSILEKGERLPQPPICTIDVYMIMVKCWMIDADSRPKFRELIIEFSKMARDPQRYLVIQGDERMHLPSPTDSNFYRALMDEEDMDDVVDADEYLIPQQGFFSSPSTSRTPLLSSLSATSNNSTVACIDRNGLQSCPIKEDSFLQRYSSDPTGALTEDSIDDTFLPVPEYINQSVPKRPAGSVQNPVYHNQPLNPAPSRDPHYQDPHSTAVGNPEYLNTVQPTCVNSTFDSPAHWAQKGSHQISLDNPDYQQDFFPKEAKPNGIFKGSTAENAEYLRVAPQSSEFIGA
As usually defined, the IC50 is the point on the concentration scale where inhibition reaches its midpoint. Higher therefore signals weaker potency. `Fc1cccc(COc2ccc(Nc3ncnc4ccc(-c5ccn(C[C@H]6CCNC6)c5)cc34)cc2Cl)c1` came in with an IC50 of 638 nM. That is a sub-micromolar value.

In turn, `CS(=O)(=O)CCNCc1cc(-c2ccc3ncnc(Nc4ccc5c(cnn5Cc5cccc(F)c5)c4)c3c2)c[nH]1` came in with an IC50 of 4 nM.

`O=C(c1cn(-c2ccc3ncnc(Nc4ccc5c(cnn5Cc5ccc(F)cc5)c4)c3c2)cc1CCO)N1CCOCC1`: the IC50 was 50 nM.

Regarding `OC1CCC(NCC(O)Cn2ccc(-c3ccc4ncnc(Nc5ccc(OCc6cccc(F)c6)c(Cl)c5)c4c3)c2)CC1` (configuration not stated), the IC50 amounted to 49 nM.

Consider `C=C(C)C(=O)Nc1cn(-c2ccc3ncnc(Nc4ccc(OCc5cccc(F)c5)c(Cl)c4)c3c2)cc1C(F)(F)F`, for which the IC50 is 5 nM.

`OCCc1cn(-c2ccc3ncnc(Nc4ccc(OCc5cccc(F)c5)c(Cl)c4)c3c2)cc1CNCCN1CCOCC1` came in with an IC50 of 71 nM.

Turning to `Fc1cccc(COc2ccc(Nc3ncnc4ccc(-c5ccn(CCN6CCNCC6)c5)cc34)cc2Cl)c1`, the IC50 worked out at 2 nM. This IC50 is about 36-fold lower than that of the compound before.

The compound `Fc1cccc(COc2ccc(Nc3ncnc4ccc(-c5ccn(CCOC6CCCCO6)c5)cc34)cc2Cl)c1` (configuration not stated) came in with an IC50 of 131 nM.

In turn, `CN1CCN(Cc2cn(-c3ccc4ncnc(Nc5ccc(OCc6cccc(F)c6)c(Cl)c5)c4c3)cc2CCO)CC1` showed an IC50 of 42 nM.

`O=C(Cn1ccc(-c2ccc3ncnc(Nc4ccc(OCc5cccc(F)c5)c(Cl)c4)c3c2)c1)NC1CCNCC1` gave an IC50 of 34 nM. This IC50 and that of the compound before are within 1.5-fold of each other.

With `CS(=O)(=O)n1ccc(-c2ccc3ncnc(Nc4ccc(OCc5cccc(F)c5)c(Cl)c4)c3c2)c1`, the IC50 is 14 nM.

Consider `CS(=O)(=O)CCNCc1cn(-c2ccc3ncnc(Nc4ccc(F)c(Cl)c4)c3c2)cc1CCO`, for which the IC50 is 65 nM.

`CS(=O)(=O)CCNCc1cn(-c2ccc3ncnc(Nc4ccc(OCc5cccc(F)c5)c(Cl)c4)c3c2)cc1CCO`: the IC50 turned out to be 11 nM.

For the compound `CCN(CC)CCc1cn(-c2ccc3ncnc(Nc4ccc(OCc5cccc(F)c5)c(Cl)c4)c3c2)cc1C(=O)N1CCOCC1`, the IC50 was 15 nM.

Turning to `CCN(CC)CCNC(=O)c1cn(-c2ccc3ncnc(Nc4ccc5c(cnn5Cc5ccc(F)cc5)c4)c3c2)cc1CCO`, the IC50 came out at 156 nM. Compared with the last compound, the IC50 is about 10-fold higher.

As to `Fc1cccc(COc2ccc(Nc3ncnc4ccc(-c5c[nH]c(CN6CCC(N7CCCCC7)CC6)c5)cc34)cc2Cl)c1`, the IC50 worked out at 66 nM.

In turn, `O=C(c1cn(-c2ccc3ncnc(Nc4ccc(OCc5ccccn5)c(Cl)c4)c3c2)cc1CCO)N1CCCCC1` gave an IC50 of 95 nM.

`Fc1cccc(COc2ccc(Nc3ncnc4ccc(-n5cc(CNCCN6CCCCC6)c(C(F)(F)F)c5)cc34)cc2Cl)c1` registered an IC50 of 10 nM.

Compound `CCN(CC)Cc1cn(-c2ccc3ncnc(Nc4ccc(OCc5cccc(F)c5)c(Cl)c4)c3c2)cc1CN(CC)CC` returned an IC50 of 127 nM.

Compound `O[C@@H](CNCc1cn(-c2ccc3ncnc(Nc4ccc(OCc5cccc(F)c5)c(Cl)c4)c3c2)cc1C(F)(F)F)CN1CCOCC1` registered an IC50 of 91 nM.

In the case of `CCOC(=O)c1cn(-c2ccc3ncnc(Nc4ccc(OCc5cccc(F)c5)c(Cl)c4)c3c2)cc1C(F)(F)F`, the IC50 is 31 nM.

`O=C(Cn1ccc(-c2ccc3ncnc(Nc4ccc(OCc5cccc(F)c5)c(Cl)c4)c3c2)c1)N1CCCCC1` gave an IC50 of 66 nM.

`Fc1cccc(COc2ccc(Nc3ncnc4ccc(-n5cc(CN6CCOCC6)c(CN6CCOCC6)c5)cc34)cc2Cl)c1`: the IC50 was 376 nM.

As to `O=C(NCCN1CCCCC1)c1cn(-c2ccc3ncnc(Nc4ccc5c(cnn5Cc5ccc(F)cc5)c4)c3c2)cc1CCO`, the IC50 came out at 23 nM. This IC50 lies about 16-fold lower than the previous one.

The compound `O=S1(=O)CCC(CNCc2cn(-c3ccc4ncnc(Nc5ccc(F)c(Cl)c5)c4c3)cc2CCO)CC1` returned an IC50 of 127 nM.

`CCN(CC)C(=O)Cn1ccc(-c2ccc3ncnc(Nc4ccc(OCc5cccc(F)c5)c(Cl)c4)c3c2)c1` displayed an IC50 of 140 nM.

Regarding `Fc1cccc(COc2ccc(Nc3ncnc4ccc(-c5c[nH]c(CNCCCN6CCOCC6)c5)cc34)cc2Cl)c1`, the IC50 is 197 nM.

For the compound `CCN(CC)CCNCc1cn(-c2ccc3ncnc(Nc4ccc(OCc5cccc(F)c5)c(Cl)c4)c3c2)cc1C(F)(F)F`, the IC50 came out at 53 nM. This IC50 is about 3.7-fold lower than that of the compound before.

Take `CN(C)CC=CC(=O)Nc1cn(-c2ccc3ncnc(Nc4ccc(OCc5cccc(F)c5)c(Cl)c4)c3c2)cc1C(F)(F)F`: the IC50 worked out at 276 nM.

The compound `O=S1(=O)CCC(CNCc2cn(-c3ccc4ncnc(Nc5ccc6c(cnn6Cc6cccc(F)c6)c5)c4c3)cc2CCO)CC1` had an IC50 of 12 nM.

For the compound `OC(CN1CCNCC1)Cn1ccc(-c2ccc3ncnc(Nc4ccc(OCc5cccc(F)c5)c(Cl)c4)c3c2)c1` (configuration not stated), the IC50 stood at 30 nM.

In the case of `CC(C)(C)OC(=O)N1CCC(NCc2cc(-c3ccc4ncnc(Nc5ccc(OCc6cccc(F)c6)c(Cl)c5)c4c3)c[nH]2)CC1`, the IC50 was 470 nM.

For `O=C(NCCN1CCCCC1)c1cn(-c2ccc3ncnc(Nc4ccc(OCc5cccc(F)c5)c(Cl)c4)c3c2)cc1CCO`, the IC50 was found to be 8 nM.

The compound `CS(=O)(=O)CCNCc1cn(-c2ccc3ncnc(Nc4ccc(OCc5ccccn5)c(Cl)c4)c3c2)cc1CCO` yielded an IC50 of 16 nM.

Regarding `OC(CNCCN1CCCCC1)Cn1ccc(-c2ccc3ncnc(Nc4ccc(OCc5cccc(F)c5)c(Cl)c4)c3c2)c1` (configuration not stated), the IC50 came out at 92 nM.

Compound `O=C(NCCN1CCCC1)c1cn(-c2ccc3ncnc(Nc4ccc5c(cnn5Cc5ccc(F)cc5)c4)c3c2)cc1CCO` displayed a half-maximal inhibitory concentration (IC50) of 16 nM. This IC50 is about 5.8-fold lower than that of the compound before.

In the case of `OCCc1cn(-c2ccc3ncnc(Nc4ccc(OCc5ccccn5)c(Cl)c4)c3c2)cc1CN1CCOCC1`, the IC50 came out at 22 nM.

On to `Fc1cccc(COc2ccc(Nc3ncnc4ccc(-c5ccn(CCN6CCOCC6)c5)cc34)cc2Cl)c1`, for which the IC50 turned out to be 40 nM.

Consider `Fc1cccc(COc2ccc(Nc3ncnc4ccc(-c5c[nH]c(CNCCN6CCOCC6)c5)cc34)cc2Cl)c1`, for which the IC50 is 102 nM.

`O=C(NCCCN1CCOCC1)c1cn(-c2ccc3ncnc(Nc4ccc(OCc5ccccn5)c(Cl)c4)c3c2)cc1CCO` came in with an IC50 of 96 nM.

`CCN(CC)Cc1cn(-c2ccc3ncnc(Nc4ccc(OCc5cccc(F)c5)c(Cl)c4)c3c2)cc1CCO` yielded an IC50 of 37 nM.

The compound `O=C(c1cn(-c2ccc3ncnc(Nc4ccc(OCc5cccc(F)c5)c(Cl)c4)c3c2)cc1CCN1CCOCC1)N1CCOCC1` displayed an IC50 of 25 nM. The IC50 values of the last two compounds are within 1.5-fold of each other.

In the case of `CN(C)Cc1cn(-c2ccc3ncnc(Nc4ccc(OCc5cccc(F)c5)c(Cl)c4)c3c2)cc1CN(C)C`, the IC50 is 56 nM.

On to `CCN(CC)Cc1cn(-c2ccc3ncnc(Nc4ccc(OCc5ccccn5)c(Cl)c4)c3c2)cc1CCO`, for which the IC50 was determined as 21 nM.

For the compound `CN(C)CCc1cn(-c2ccc3ncnc(Nc4ccc(OCc5cccc(F)c5)c(Cl)c4)c3c2)cc1C(=O)N1CCOCC1`, the IC50 amounted to 57 nM. Compared with the last compound, the IC50 is about 2.7-fold higher.

For `Fc1cccc(COc2ccc(Nc3ncnc4ccc(-n5cc(CNCCN6CCOCC6)c(C(F)(F)F)c5)cc34)cc2Cl)c1`, the IC50 turned out to be 32 nM.

In turn, `CS(=O)(=O)CCNC(=O)c1cc(-c2ccc3ncnc(Nc4ccc(OCc5cccc(F)c5)c(Cl)c4)c3c2)c[nH]1` showed an IC50 of 24 nM.

On to `O=S1(=O)CCC(O)(CNCc2cn(-c3ccc4ncnc(Nc5ccc(OCc6cccc(F)c6)c(Cl)c5)c4c3)cc2CCO)CC1`, for which the IC50 worked out at 19 nM.

Compound `Fc1cccc(Cn2ncc3cc(Nc4ncnc5ccc(-c6cc[nH]c6)cc45)ccc32)c1` had an IC50 of 3 nM.

In turn, `O=C1CCc2cn(-c3ccc4ncnc(Nc5ccc(OCc6cccc(F)c6)c(Cl)c5)c4c3)cc21` showed an IC50 of 2 nM. This IC50 is about 1.5-fold lower than that of the compound before.

With `O=S1(=O)CCC(CNCC(O)Cn2ccc(-c3ccc4ncnc(Nc5ccc(OCc6cccc(F)c6)c(Cl)c5)c4c3)c2)CC1` (configuration not stated), the IC50 was determined as 42 nM.

Compound `OC1(Cn2ccc(-c3ccc4ncnc(Nc5ccc(OCc6cccc(F)c6)c(Cl)c5)c4c3)c2)CCNCC1` came in with an IC50 of 12 nM.

`O=S1(=O)CCC(O)(CNCc2cn(-c3ccc4ncnc(Nc5ccc(F)c(Cl)c5)c4c3)cc2CCO)CC1` displayed an IC50 of 76 nM. This IC50 lies about 6.3-fold higher than the previous one.

Consider `CCN(CC)CCON=C1CCc2cn(-c3ccc4ncnc(Nc5ccc(OCc6cccc(F)c6)c(Cl)c5)c4c3)cc21`, for which the IC50 turned out to be 72 nM.

In turn, `O=C(Cn1ccc(-c2ccc3ncnc(Nc4ccc(OCc5cccc(F)c5)c(Cl)c4)c3c2)c1)NC1CC1` returned an IC50 of 13 nM.

Regarding `CN1CCN(C(=O)c2cn(-c3ccc4ncnc(Nc5ccc6c(cnn6Cc6ccc(F)cc6)c5)c4c3)cc2CCO)CC1`, the IC50 was found to be 62 nM.

On to `Fc1cccc(COc2ccc(Nc3ncnc4ccc(-n5cc(CN6CCCCC6)c(CN6CCCCC6)c5)cc34)cc2Cl)c1`, for which the IC50 turned out to be 291 nM.

In turn, `CS(=O)(=O)CCNCC(O)Cn1ccc(-c2ccc3ncnc(Nc4ccc(OCc5cccc(F)c5)c(Cl)c4)c3c2)c1` (configuration not stated) displayed an IC50 of 17 nM.

On to `COCCNCC(O)Cn1ccc(-c2ccc3ncnc(Nc4ccc(OCc5cccc(F)c5)c(Cl)c4)c3c2)c1` (configuration not stated), for which the IC50 came to 11 nM. This IC50 lies about 1.5-fold lower than the previous one.

As to `OCC1CCCN1CCn1ccc(-c2ccc3ncnc(Nc4ccc(OCc5cccc(F)c5)c(Cl)c4)c3c2)c1` (configuration not stated), the IC50 came out at 60 nM.

As to `O=C(c1cn(-c2ccc3ncnc(Nc4ccc(OCc5ccccn5)c(Cl)c4)c3c2)cc1CCO)N1CCCC1`, the IC50 stood at 30 nM.

With `O=S1(=O)CCC(O)(CNCc2cn(-c3ccc4ncnc(Nc5ccc(OCc6cccc(F)c6)c(Cl)c5)c4c3)cc2C(F)(F)F)CC1`, the IC50 was determined as 16 nM. This IC50 lies about 1.9-fold lower than the previous one.

In turn, `COCCc1cn(-c2ccc3ncnc(Nc4ccc(OCc5cccc(F)c5)c(Cl)c4)c3c2)cc1C(=O)N1CCOCC1` gave an IC50 of 72 nM. This IC50 is about 4.5-fold higher than that of the compound before.

On to `CN(C)Cc1cn(-c2ccc3ncnc(Nc4ccc5c(cnn5Cc5cccc(F)c5)c4)c3c2)cc1CCO`, for which the IC50 stood at 15 nM.

In turn, `Fc1ccc(Nc2ncnc3ccc(-c4cc[nH]c4)cc23)cc1Cl` displayed an IC50 of 47 nM.

The compound `CC(C)(C)OC(=O)n1cccc1-c1ccc2ncnc(Nc3ccc(OCc4cccc(F)c4)c(Cl)c3)c2c1` returned an IC50 of 28 nM. Against the preceding compound, the IC50 is about 1.7-fold lower.

`CN(C)Cc1cn(-c2ccc3ncnc(Nc4ccc(OCc5cccc(F)c5)c(Cl)c4)c3c2)cc1CCO` yielded an IC50 of 39 nM.

Take `COCCNCc1cc(-c2ccc3ncnc(Nc4ccc(OCc5cccc(F)c5)c(Cl)c4)c3c2)c[nH]1`: the IC50 was found to be 31 nM. The IC50 values of the last two compounds are within 1.5-fold of each other.

For the compound `O=C(NCCCN1CCOCC1)c1cn(-c2ccc3ncnc(Nc4ccc5c(cnn5Cc5ccc(F)cc5)c4)c3c2)cc1CCO`, the IC50 turned out to be 115 nM.

`O=S1(=O)CCC(CNCc2cn(-c3ccc4ncnc(Nc5ccc(OCc6cccc(F)c6)c(Cl)c5)c4c3)cc2CCO)CC1` showed an IC50 of 24 nM. Compared with the last compound, the IC50 is about 4.8-fold lower.

Take `OC(CN1CCOCC1)Cn1ccc(-c2ccc3ncnc(Nc4ccc(OCc5cccc(F)c5)c(Cl)c4)c3c2)c1` (configuration not stated): the IC50 was determined as 12 nM. This IC50 is about 2-fold lower than that of the compound before.

For `CS(=O)(=O)CCNCc1cn(-c2ccc3ncnc(Nc4ccc5c(cnn5Cc5cccc(F)c5)c4)c3c2)cc1CCO`, the IC50 is 25 nM.
